Data reported in patent publication US10780061B2, “Composition comprising farnesol and use thereof” (Daegu Gyongbuk Institute of Science and Technology, priority 2014, dated 2020).

How the values were obtained:
[1] = Fat mass ratio by dual-energy X-ray absorptiometry; format: in vivo; conditions: old mouse, farnesol diet 4 months
Description: 22-month-old female mice (weighing 30 g) are fed with a control diet and a farnesol diet for 4 months. That is, 22-month-old mice are fed for 4 months, and then 26-month-old mice are analyzed. […] The same mouse is used as a control group, except that it is fed with a diet containing no farnesol. Muscle strength, energy expenditure, glucose tolerance, and fat accumulation of each mouse are evaluated.
The fat mass ratio is determined by dual-energy X-ray absorptiometry (LUNA PIXIMUS, GE Healthcare/LUNA), and measured on combined images after radiation at 40 kV X-ray and 80 kV X-ray four times, respectively.

[2] = tested on: fibrosis-related genes Col1 A1, Col A3, TGF-β, Timp2; assay: qRT-PCR of fibrosis-related genes in extensor digitorum longus muscles; format: in vivo, mouse; conditions: 22-month-old mice, farnesol diet 4 months
Description: In muscle aging, fibrosis is closely related to a reduction in regenerative capacity and a reduction in quality of muscle. 22-month-old female mice (weighing 30 g) are fed with a control diet or a farnesol-containing diet for 4 months. Other feeding conditions are the same as described in Section 2 of Example 1. Thereafter, expressions of fibrosis-related genes, collagen 1 A1 (Col1 A1), collagen A3(Col A3), TGF-β, and Timp2 in extensor digitorum longus muscles are analyzed by qRT-PCR (quantitative Real Time-polymerase chain reaction) (primer sets of SEQ ID NOS: 1 and 2, 3 and 4, 5 and 6, 7 and 8 are used).

[3] = tested on: PARIS; assay: PARIS protein and transcriptional levels in extensor digitorum longus muscles of old mouse; format: in vivo; conditions: 24-month-old mouse, farnesol 5 weeks, vs old mouse without farnesol
[4] = tested on: AMPK and p38 MAPK; assay: Immunoblot of pAMPK and pp38 in farnesol-treated C2C12 myoblasts; format: cell-based; conditions: 0.1 μM farnesol, 48 hours
Description: The C2C12 myoblasts are cultured in DMEM containing 2% horse serum and 0.1 μM farnesol dissolved in DMSO for 48 hours. A control group is cultured in the same manner as above, except that only DMSO is added. Other culture conditions and immunoblot procedure are the same as those described in Section 1 of Example 2. PGC-1α, pAMPK, pp38 and basal forms thereof are subjected to immunoblotting.

[5] = tested on: C2C12 myoblasts introduced with FLAG-PARIS WT or C631S; assay: Differentiation of PARIS WT or PARIS C631S gene-introduced C2C12 myoblasts (Mhc immunostaining); format: cell-based; conditions: C2C12, 0.1 M farnesol, 24 hours
Description: Additionally, it is examined whether the presence of farnesol affects farnesylation of PARIS protein in skeletal muscles. To this end, the FLAG-PARIS wild-type (WT) gene or the FLAG-PARIS C631S mutant (hereinafter, referred to as MT) gene is overexpressed in C2C12 myoblasts, and then farnesol is treated thereto, followed by measurement of differentiation. The muscles of mice are introduced with AAV-GFP, AAV-PARIS WT or AAV-PARIS C631S viral vector, and mice are bred by feeding with farnesol, followed by measurement of mitochondrial enzyme activity.
In FIG. 5D, C2C12 myoblasts are introduced with FLAG-PARIS wild-type (WT) gene or FLAG-PARIS C631S mutant (hereinafter, referred to as “MT”) gene, and cultured in the presence of […] farnesol in DMEM containing 10% FBS for 24 hours, followed by measurement of muscle differentiation and mitochondrial enzyme activity. Muscle differentiation is examined by immunostaining using a muscle differentiation marker, Mhc. […] The percentage of Mhc-negative nuclei indicates the cells showing no formation of red-colored myotube among the nucleus-stained myoblasts of A.

[6] = tested on: PARIS-overexpressing muscles; assay: SDH staining of PARIS-overexpressing tibialis anterior muscles; format: in vivo, mouse; conditions: 22-month-old mice, PARIS-GFP adenovirus in tibialis anterior muscle, 4 days
Description: Control-GFP adenovirus and PARIS-GFP adenovirus are injected into the tibialis anterior muscles of 22-month-old mice (female, body weight of 30 g), respectively. The old mice are fed with a predetermined diet, and 4 days later, muscles are collected and subjected to histological staining and qRT-PCR. For PARIS overexpression, human full-length PARIS cDNA (IMAGE: 30347892; Open Biosystems) (SEQ ID NO:9) is introduced into BamH1 and EcoR1 restriction sites of a viral vector, AAV/CBA-WPRE-bGHpA (containing chicken beta-actin (CBA) promoter and woodchuck hepatitis virus post-transcriptional-regulatory element (WPRE), and bovine growth hormone polyadenylation signal sequence) to prepare a full-length PARIS cDNA-containing AAV/CBA-WPRE-bGHpA vector, and this vector is introduced into the adenovirus-introduced cells. A high titer adenovirus […] is a viral vector manufactured by Viral Vector Core Facility (University of Iowa Carver College). Virus transduction efficiency is evaluated by GFP fluorescence. To evaluate PARIS overexpression and administration effect of farnesol, frozen sections of tibialis anterior muscles are stained for SDH enzyme activity.
Further, similar to the result in C2C12 myoblast models, an oxidative metabolism reduced by PARIS overexpression is also recovered by farnesol treatment in animal models. […]

[7] = tested on: injured tibialis anterior muscles; assay: Histological staining of cardiotoxin-injured tibialis anterior muscles of old animals; format: in vivo, mouse; conditions: 25-month-old mice, farnesol diet 2 weeks, 4 days after CTX injury
Description: 25-month-old mice are fed with a control diet or a farnesol-containing diet for 2 weeks, and then 2 ul of 10 uM cardiotoxin (CTX) per body weight (g) is directly injected into the muscle to induce muscle injury. After 4 days, muscles are frozen and sectioned, followed by histological staining.
Hematoxylin and eosin (H&E) staining and sirus red staining are used in histological staining. Because muscle fibrosis […] and muscle regeneration is active at 4 days after muscle injury, effect of farnesol administration may be determined by histological staining. H&E staining is performed to examine structural recovery of injury, and sirus red staining is performed to examine the presence of fibrosis. […] That is, the control old animal has more thicker fibrosis regions located between the fibers than the experimental old animal treated with farnesol.

[8] = tested on: human PGC-1α promoter; assay: Screening of compounds using PGC-1α reporter (luciferase) C2C12 cell line; format: cell-based, mouse; conditions: 10 μM, 48 hours, luciferase luminescence
Description: To screen for a compound activating PGC-1α gene expression in C2C12 myoblast, a PGC-1α reporter-expressing C2C12 cell line (hereinafter, referred to as ‘PGC-1α reporter cell line’ or ‘C2C12-PGC-1α cell line) is established. A vector expressing luciferase and dscGFP (destabilized Green Fluorescent Protein) under human PGC-1α promoter having a length of 1 kb is prepared, and this vector is inserted into lentivirus to transfect C2C12 cells. To select a cell line that genetically and stably expresses this vector, fluorescence emitted from green fluorescent protein (GFP) included in the vector is monitored. […] The expression level is measured by luminescence after addition of a luciferase substrate, thereby determining activation or inhibition of PGC-1α transcription by the compound.
The C2C12-PGC-1α reporter cell line prepared in Section 1 is used to screen a PGC-1α expression regulator from 2320 compounds provided by Korea chemical bank. […] 48 hours later, luminescence by luciferase is measured. in detail, cells are lysed in 10 μl of passive lysis buffer (50 mM Tris-HCl, 7.5 mM MgCl2, 750 mM NaCl, 5 mM EGTA, 1% Triton-x 100, 1 mM Na3VO4, 10 mM NaF, 0.1 mM PMSF (phenylmethanesulfonylfluoride), PI (protease inhibitor)) as a cell lysis buffer, and 50 μl of a luciferase substrate, luciferin was added thereto to allow enzymatic reaction. Then, luminescence is measured. […]

CC(C)=CCC/C(C)=C/CC/C(C)=C/CO [farnesol, (2E,6E)-3,7,11-trimethyldodeca-2,6,10-trien-1-ol]
fat mass ratio [1]: significantly decreased | expressions of fibrosis-related genes in EDL [2]: remarkably reduced | protein expression level of PARIS in EDL [3]: remarkably decreased | transcriptional level of PARIS in EDL [3]: remarkably decreased | pAMPK level [4]: does not affect | pp38 level [4]: does not affect | percentage of Mhc-negative nuclei, FLAG-PARIS C631S [5]: does not significantly decrease | percentage of Mhc-negative nuclei, FLAG-PARIS WT [5]: significantly decreases | oxidative metabolism (SDH staining) reduced by PARIS overexpression [6]: recovered | percentage of blue and red stained muscle fibers (sirus red staining) [7]: remarkably reduced | regenerative region and fibrotic area [7]: a widespread regenerative region and a narrow fibrotic area | size of muscle fibers stained red (H&E staining) [7]: increased | PGC-1α promoter activity relative to control group DMSO [8]: greatly increasing
